Laboratory results reported in ChEMBL document CHEMBL1140691, “New type of anti-diabetic compounds from the processed leaves of Hydrangea macrophylla var. thunbergii (Hydrangeae Dulcis Folium)” (2007).

Tests used:
Format in all cases: functional
3T3-L1 [1] = assay: Increase in triglyceride levels in mouse 3T3L1 cells at 30 uM
3T3-L1 [2] = assay: Increase in triglyceride levels in mouse 3T3L1 cells at 3 uM
3T3-L1 [3] = assay: Increase in triglyceride levels in mouse 3T3L1 cells at 1 uM
3T3-L1 [4] = assay: Increase in triglyceride levels in mouse 3T3L1 cells at 100 uM
3T3-L1 [5] = assay: Increase in triglyceride levels in mouse 3T3L1 cells at 10 uM
3T3-L1 [6] = assay: Increase in adiponectin release in mouse 3T3L1 cells at 3 uM on day 6 by ELISA
Mus musculus [7] = assay: Effect on blood triglyceride levels in KKAy mouse at 100 mg/kg, po after 1 week
3T3-L1 [8] = assay: Increase in GLUT4 gene expression in mouse 3T3L1 cells at 100 uM after 2 days relative to beta-actin mRNA expression
Mus musculus [9] = assay: Decrease in blood glucose levels in KKAy mouse at 100 mg/kg, po after 2 weeks
Mus musculus [10] = assay: Decrease in blood free fatty acid levels in KKAy mouse at 100 mg/kg, po after 2 weeks
3T3-L1 [11] = assay: Increase in adiponectin release in mouse 3T3L1 cells at 30 uM on day 4 by ELISA
Mus musculus [12] = assay: Decrease in blood glucose levels in KKAy mouse at 200 mg/kg, po
3T3-L1 [13] = assay: Increase in adiponectin release in mouse 3T3L1 cells at 100 uM on day 6 by ELISA
Mus musculus [14] = assay: Decrease in blood free fatty acid levels in KKAy mouse at 200 mg/kg, po
3T3-L1 [15] = assay: Decrease in IL6 gene expression in mouse 3T3L1 cells at 100 uM after 2 days relative to beta-actin mRNA expression
3T3-L1 [16] = assay: Increase in GLUT4 gene expression in mouse 3T3L1 cells at 30 uM after 2 days relative to beta-actin mRNA expression
3T3-L1 [17] = assay: Increase in 2-Deoxyglucose-uptake in mouse 3T3L1 cells at 100 uM by liquid scintillation counter
3T3-L1 [18] = assay: Increase in adiponectin release in mouse 3T3L1 cells at 10 uM on day 4 by ELISA
Mus musculus [19] = assay: Decrease in blood free fatty acid levels in KKAy mouse at 200 mg/kg, po after 1 week
Mus musculus [20] = assay: Effect on blood triglyceride levels in KKAy mouse at 200 mg/kg, po after 2 weeks
Mus musculus [21] = assay: Effect on blood triglyceride levels in KKAy mouse at 100 mg/kg, po
3T3-L1 [22] = assay: Increase in adiponectin release in mouse 3T3L1 cells at 10 uM on day 6 by ELISA
3T3-L1 [23] = assay: Increase in PPARgamma2 gene expression in mouse 3T3L1 cells at 30 uM after 2 days relative to beta-actin mRNA expression
3T3-L1 [24] = assay: Increase in adiponectin release in mouse 3T3L1 cells at 30 uM on day 6 by ELISA
Mus musculus [25] = assay: Decrease in blood glucose levels in KKAy mouse at 100 mg/kg, po after 1 week
Mus musculus [26] = assay: Decrease in blood glucose levels in KKAy mouse at 200 mg/kg, po after 1 week
Mus musculus [27] = assay: Decrease in blood glucose levels in KKAy mouse at 100 mg/kg, po
3T3-L1 [28] = assay: Increase in adiponectin gene expression in mouse 3T3L1 cells at 30 uM after 2 days relative to beta-actin mRNA expression
3T3-L1 [29] = assay: Increase in adiponectin release in mouse 3T3L1 cells at 100 uM on day 4 by ELISA
Mus musculus [30] = assay: Effect on blood triglyceride levels in KKAy mouse at 100 mg/kg, po after 2 weeks
3T3-L1 [31] = assay: Increase in adiponectin release in mouse 3T3L1 cells at 3 uM on day 4 by ELISA
3T3-L1 [32] = assay: Increase in 2-Deoxyglucose-uptake in mouse 3T3L1 cells at 3 uM by liquid scintillation counter
Mus musculus [33] = assay: Decrease in blood free fatty acid levels in KKAy mouse at 200 mg/kg, po after 2 weeks
3T3-L1 [34] = assay: Increase in PPARgamma2 gene expression in mouse 3T3L1 cells at 100 uM after 2 days relative to beta-actin mRNA expression
Mus musculus [35] = assay: Effect on blood triglyceride levels in KKAy mouse at 200 mg/kg, po
Mus musculus [36] = assay: Decrease in blood free fatty acid levels in KKAy mouse at 100 mg/kg, po after 1 week
Mus musculus [37] = assay: Effect on blood triglyceride levels in KKAy mouse at 200 mg/kg, po after 1 week
3T3-L1 [38] = assay: Increase in 2-Deoxyglucose-uptake in mouse 3T3L1 cells at 10 uM by liquid scintillation counter
Mus musculus [39] = assay: Decrease in blood free fatty acid levels in KKAy mouse at 100 mg/kg, po
3T3-L1 [40] = assay: Decrease in IL6 gene expression in mouse 3T3L1 cells at 30 uM after 2 days relative to beta-actin mRNA expression
Mus musculus [41] = assay: Decrease in blood glucose levels in KKAy mouse at 200 mg/kg, po after 2 weeks
3T3-L1 [42] = assay: Increase in adiponectin gene expression in mouse 3T3L1 cells at 100 uM after 2 days relative to beta-actin mRNA expression
3T3-L1 [43] = assay: Increase in 2-Deoxyglucose-uptake in mouse 3T3L1 cells at 1 uM by liquid scintillation counter
3T3-L1 [44] = assay: Increase in 2-Deoxyglucose-uptake in mouse 3T3L1 cells at 30 uM by liquid scintillation counter
3T3-L1 [45] = assay: Decrease in IL6 gene expression in mouse 3T3L1 cells at 3 uM after 2 days relative to beta-actin mRNA expression
3T3-L1 [46] = assay: Increase in adiponectin gene expression in mouse 3T3L1 cells at 3 uM after 2 days relative to beta-actin mRNA expression
3T3-L1 [47] = assay: Increase in PPARgamma2 gene expression in mouse 3T3L1 cells at 3 uM after 2 days relative to beta-actin mRNA expression
3T3-L1 [48] = assay: Increase in GLUT4 gene expression in mouse 3T3L1 cells at 3 uM after 2 days relative to beta-actin mRNA expression

COc1ccc([C@H]2Cc3cccc(O[C@@H]4O[C@H](CO)[C@@H](O)[C@H](O)[C@H]4O)c3C(=O)O2)cc1O
Activity (3T3-L1 [1]): -3%
Activity (3T3-L1 [2]): 8.7%
Activity (3T3-L1 [3]): 3.6%
Activity (3T3-L1 [4]): 6.6%
Activity (3T3-L1 [5]): -1.5%

O=C1OC(c2ccc(O)cc2)Cc2cccc(O[C@@H]3O[C@H](CO)[C@@H](O)[C@H](O)[C@H]3O)c21 (some centres not stated)
Activity (3T3-L1 [1]): 10.5%
Activity (3T3-L1 [2]): 11.2%
Activity (3T3-L1 [3]): 11.1%
Activity (3T3-L1 [4]): 9.2%
Activity (3T3-L1 [5]): 1.2%

O=C(O)c1c(O)cccc1/C=C/c1ccc(O)cc1 [HYDRANGEAIC ACID]
Activity (3T3-L1 [1]): 27.3%
Activity (3T3-L1 [2]): 11.7%
Activity (3T3-L1 [3]): 2.2%
Activity (3T3-L1 [4]): 41.2%
Activity (3T3-L1 [5]): 11.1%

O=C1OC(c2ccc(O)cc2)Cc2cccc(O)c21 (configuration not stated) [HYDRANGENOL]
Activity (3T3-L1 [6]): 68.2 ng/mL
Activity (Mus musculus [7]): 429.3 mg/dL
Ratio (3T3-L1 [8]): 1.38
Activity (Mus musculus [9]): 422.7 mg/dL
Activity (3T3-L1 [1]): 29.9%
Activity (Mus musculus [10]): 1.07 mEq/L
Activity (3T3-L1 [11]): 27.4 ng/mL
Activity (Mus musculus [12]): 336 mg/dL
Activity (3T3-L1 [13]): 99.8 ng/mL
Activity (3T3-L1 [2]): 19.2%
Activity (Mus musculus [14]): 1.01 mEq/L
Ratio (3T3-L1 [15]): 0.51
Ratio (3T3-L1 [16]): 1.12
Activity (3T3-L1 [17]): 302%
Activity (3T3-L1 [3]): 14.4%
Activity (3T3-L1 [18]): 22.8 ng/mL
Activity (Mus musculus [19]): 0.81 mEq/L
Activity (Mus musculus [20]): 428.8 mg/dL
Activity (Mus musculus [21]): 332.1 mg/dL
Activity (3T3-L1 [22]): 84.2 ng/mL
Ratio (3T3-L1 [23]): 1.92
Activity (3T3-L1 [4]): 41.3%
Activity (3T3-L1 [24]): 94 ng/mL
Activity (Mus musculus [25]): 389.1 mg/dL
Activity (Mus musculus [26]): 397.5 mg/dL
Activity (Mus musculus [27]): 336.3 mg/dL
Ratio (3T3-L1 [28]): 1.98
Activity (3T3-L1 [29]): 33 ng/mL
Activity (Mus musculus [30]): 483.9 mg/dL
Activity (3T3-L1 [31]): 22.3 ng/mL
Activity (3T3-L1 [32]): 160%
Activity (Mus musculus [33]): 0.89 mEq/L
Ratio (3T3-L1 [34]): 2.65
Activity (Mus musculus [35]): 362.8 mg/dL
Activity (Mus musculus [36]): 0.91 mEq/L
Activity (3T3-L1 [5]): 17.7%
Activity (Mus musculus [37]): 413.8 mg/dL
Activity (3T3-L1 [38]): 221%
Activity (Mus musculus [39]): 0.96 mEq/L
Ratio (3T3-L1 [40]): 0.78
Activity (Mus musculus [41]): 411.2 mg/dL
Ratio (3T3-L1 [42]): 2.46
Activity (3T3-L1 [43]): 117%
Activity (3T3-L1 [44]): 245%

COc1ccc([C@H]2Cc3cccc(O)c3C(=O)O2)cc1O [PHYLLODULCIN]
Activity (3T3-L1 [1]): 23.8%
Activity (3T3-L1 [2]): 12.8%
Activity (3T3-L1 [3]): -0.7%
Activity (3T3-L1 [4]): 20.3%
Activity (3T3-L1 [5]): 9.8%

O=c1oc(-c2ccc(O)c(O)c2)cc2cccc(O)c12 [THUNBERGINOL A]
Activity (3T3-L1 [1]): 15.7%
Activity (3T3-L1 [2]): 17.5%
Activity (3T3-L1 [3]): 8%
Activity (3T3-L1 [4]): -27.6%
Activity (3T3-L1 [5]): 19.6%

O=c1oc(-c2ccc(O)c(O)c2)cc2cc(O)cc(O)c12 [THUNBERGINOL B]
Activity (3T3-L1 [1]): 7.2%
Activity (3T3-L1 [2]): -8%
Activity (3T3-L1 [3]): -3.8%
Activity (3T3-L1 [4]): 54.1%
Activity (3T3-L1 [5]): -7.8%

O=C1OC(c2ccc(O)cc2)Cc2cc(O)cc(O)c21 (configuration not stated) [THUNBERGINOL C]
Activity (3T3-L1 [1]): -17.6%
Activity (3T3-L1 [2]): -7.5%
Activity (3T3-L1 [3]): -9.3%
Activity (3T3-L1 [4]): 1.4%
Activity (3T3-L1 [5]): -11.1%

O=C1OC(c2ccc(O)c(O)c2)Cc2cc(O)cc(O)c21 (configuration not stated) [THUNBERGINOL D]
Activity (3T3-L1 [1]): 4%
Activity (3T3-L1 [2]): 2.8%
Activity (3T3-L1 [3]): -1.2%
Activity (3T3-L1 [4]): 12.5%
Activity (3T3-L1 [5]): -0.8%

COc1ccc([C@H]2Cc3cc(O)cc(O)c3C(=O)O2)cc1O [THUNBERGINOL E]
Activity (3T3-L1 [1]): 3.4%
Activity (3T3-L1 [2]): -7.5%
Activity (3T3-L1 [3]): -6.3%
Activity (3T3-L1 [4]): -4%
Activity (3T3-L1 [5]): -8%

O=C1O/C(=C\c2ccc(O)c(O)c2)c2cccc(O)c21 [THUNBERGINOL F]
Activity (3T3-L1 [1]): 8.3%
Activity (3T3-L1 [2]): 6.2%
Activity (3T3-L1 [3]): 2.1%
Activity (3T3-L1 [4]): -54.8%
Activity (3T3-L1 [5]): 6.2%

Cc1c(C)c2c(c(C)c1O)CCC(C)(COc1ccc(CC3SC(=O)NC3=O)cc1)O2 (configuration not stated) [TROGLITAZONE]
Activity (Mus musculus [7]): 303.4 mg/dL
Activity (Mus musculus [10]): 0.8 mEq/L
Activity (3T3-L1 [11]): 43 ng/mL
Activity (3T3-L1 [2]): 40.5%
Activity (3T3-L1 [3]): 33.8%
Ratio (3T3-L1 [45]): 0.89
Activity (Mus musculus [21]): 329.4 mg/dL
Activity (3T3-L1 [24]): 101.2 ng/mL
Activity (Mus musculus [25]): 293.3 mg/dL
Activity (Mus musculus [27]): 307.5 mg/dL
Activity (Mus musculus [30]): 464.6 mg/dL
Activity (3T3-L1 [32]): 388%
Activity (Mus musculus [36]): 0.62 mEq/L
Activity (3T3-L1 [5]): 39.6%
Ratio (3T3-L1 [46]): 3.01
Ratio (3T3-L1 [47]): 1.09
Activity (Mus musculus [39]): 0.95 mEq/L
Ratio (3T3-L1 [48]): 2.92
